Columns and labels:
polio virus strain 1 = test: organism not typed; assay type: cell-based; details: read-out: % inh.
[1] = test system: coxsackie B virus strain 2; test: CPE inhibition in mammalian cell culture, Cox-B2; assay type: cell-based; details: read-out: % inh.

Row | Structure (SMILES) | inhibition at 1 µM (polio virus strain 1) | inhibition at 10 µM (polio virus strain 1) | other results
1 | COc1ccc(-c2c(C)nn3c(Nc4cc(Cl)cc(Cl)c4)cc(C)nc23)cc1OC [Ex. 64, N-(3,5-dichlorophenyl)-3-(3,4-dimethoxyphenyl)-2,5-dimethyl-pyrazolo[1,5-a]pyrimidin-7-amine] | 20% | – | –
2 | Cc1cc(NCc2ccccn2)n2nc(C)c(-c3ccc(F)cc3)c2n1 [Ex. 37, 3-(4-fluorophenyl)-2,5-dimethyl-N-(2-pyridylmethyl)pyrazolo[1,5-a]pyrimidin-7-amine] | – | – | inhibition at 10 µM [1]: 78%
3 | COc1ccc(-c2c(C)nn3c(Nc4ccc(C)cc4)cc(C)nc23)cc1OC [Ex. 48, 3-(3,4-dimethoxyphenyl)-2,5-dimethyl-N-(p-tolyl)pyrazolo[1,5-a]pyrimidin-7-amine] | 79% | – | –
4 | COc1ccc(-c2c(C)nn3c(NCCCn4ccnc4)cc(C)nc23)cc1 [Ex. 67, N-(3-imidazol-1-ylpropyl)-3-(4-methoxyphenyl)-2,5-dimethyl-pyrazolo[1,5-a]pyrimidin-7-amine] | 63% | – | –
5 | CCCc1cc(NCCCn2ccnc2)n2nc(C)c(-c3ccccc3)c2n1 [Ex. 24, N-(3-imidazol-1-ylpropyl)-2-methyl-3-phenyl-5-propyl-pyrazolo[1,5-a]pyrimidin-7-amine] | – | 86% | –
6 | Cc1cc(NCc2ccncc2)n2nc(C)c(-c3cccs3)c2n1 [Ex. 70, 2,5-dimethyl-N-(4-pyridylmethyl)-3-(2-thienyl)pyrazolo[1,5-a]pyrimidin-7-amine] | – | 89% | –
7 | Cc1cc(NCCCn2ccnc2)n2nc(C)c(-c3ccc(Cl)cc3)c2n1 [Ex. 44, 3-(4-chlorophenyl)-N-(3-imidazol-1-ylpropyl)-2,5-dimethyl-pyrazolo[1,5-a]pyrimidin-7-amine] | 70% | – | –
8 | CCc1ccc(Nc2cc(C)nc3c(-c4ccc(OC)c(OC)c4)c(C)nn23)cc1 [Ex. 62, 3-(3,4-dimethoxyphenyl)-N-(4-ethylphenyl)-2,5-dimethyl-pyrazolo[1,5-a]pyrimidin-7-amine] | 97% | – | –
9 | COc1ccc(-c2c(C)nn3c(Nc4cccc(C)c4)cc(C)nc23)cc1OC [Ex. 50, 3-(3,4-dimethoxyphenyl)-2,5-dimethyl-N-(m-tolyl)pyrazolo[1,5-a]pyrimidin-7-amine] | 81% | – | –
10 | CCOc1ccc(Nc2cc(C)nc3c(-c4ccc(OC)c(OC)c4)c(C)nn23)cc1 [Ex. 54, 3-(3,4-dimethoxyphenyl)-N-(4-ethoxyphenyl)-2,5-dimethyl-pyrazolo[1,5-a]pyrimidin-7-amine] | 89% | – | –
11 | COc1ccc(Nc2cc(C)nc3c(-c4ccc(OC)c(OC)c4)c(C)nn23)cc1 [Ex. 49, 3-(3,4-dimethoxyphenyl)-N-(4-methoxyphenyl)-2,5-dimethyl-pyrazolo[1,5-a]pyrimidin-7-amine] | – | – | inhibition at 1 µM [1]: 80%
12 | Cc1cc(NCc2cccnc2)n2nc(C)c(-c3cccs3)c2n1 [Ex. 69, 2,5-dimethyl-N-(3-pyridylmethyl)-3-(2-thienyl)pyrazolo[1,5-a]pyrimidin-7-amine] | – | – | inhibition at 10 µM [1]: 65%
13 | CCCCc1ccc(Nc2cc(C)nc3c(-c4ccc(OC)c(OC)c4)c(C)nn23)cc1 [Ex. 63, N-(4-butylphenyl)-3-(3,4-dimethoxyphenyl)-2,5-dimethyl-pyrazolo[1,5-a]pyrimidin-7-amine] | 87% | – | –
14 | Cc1cc(NCc2cccnc2)n2nc(C)c(-c3ccccc3)c2n1 [Ex. 39, 2,5-dimethyl-3-phenyl-N-(3-pyridylmethyl)pyrazolo[1,5-a]pyrimidin-7-amine] | 71% | – | –
15 | COC(=O)c1ccc(-c2c(C)nn3c(NCc4ccc(F)cc4)cc(C)nc23)cc1 [Ex. 107, methyl 4-[7-[(4-fluorophenyl)methylamino]-2,5-dimethyl-pyrazolo[1,5-a]pyrimidin-3-yl]benzoate] | 21% | – | –
16 | CCOc1ccc(-c2c(C)nn3c(NCc4ccc(F)cc4)cc(C)nc23)cc1OCC [Ex. 109, 3-(3,4-diethoxyphenyl)-N-[(4-fluorophenyl)methyl]-2,5-dimethyl-pyrazolo[1,5-a]pyrimidin-7-amine] | 88% | – | –
17 | COc1ccc(-c2c(C)nn3c(NCc4ccncc4)cc(C)nc23)cc1 [Ex. 66, 3-(4-methoxyphenyl)-2,5-dimethyl-N-(4-pyridylmethyl)pyrazolo[1,5-a]pyrimidin-7-amine] | – | – | inhibition at 0.01 µM (polio virus strain 1): 100%
18 | Cc1cc(NCCCn2ccnc2)n2ncc(-c3ccc(Cl)cc3)c2n1 [Ex. 28, 3-(4-chlorophenyl)-N-(3-imidazol-1-ylpropyl)-5-methyl-pyrazolo[1,5-a]pyrimidin-7-amine] | – | 72% | –
19 | COc1ccc(-c2c(C)nn3c(Nc4ccc(F)cc4)cc(C)nc23)cc1OC [Ex. 53, 3-(3,4-dimethoxyphenyl)-N-(4-fluorophenyl)-2,5-dimethyl-pyrazolo[1,5-a]pyrimidin-7-amine] | – | 84% | –
20 | COc1ccc(-c2c(C)nn3c(Nc4ccc(NC(C)=O)cc4)cc(C)nc23)cc1OC [Ex. 58, N-[4-[[3-(3,4-dimethoxyphenyl)-2,5-dimethyl-pyrazolo[1,5-a]pyrimidin-7-yl]amino]phenyl]acetamide] | – | – | inhibition at 0.1 µM (polio virus strain 1): 74%
21 | Cc1cc(NCCc2ccccc2)n2nc(C)c(-c3ccc(F)cc3)c2n1 [Ex. 14, 3-(4-fluorophenyl)-2,5-dimethyl-N-phenethyl-pyrazolo[1,5-a]pyrimidin-7-amine] | – | 73% | –
22 | Cc1cc(NCc2ccccc2)n2ncc(-c3ccc(F)cc3)c2n1 [Ex. 18, N-benzyl-3-(4-fluorophenyl)-5-methyl-pyrazolo[1,5-a]pyrimidin-7-amine] | – | 51% | –
23 | Cc1cc(NCc2ccccn2)n2nc(C)c(-c3ccc(Cl)cc3)c2n1 [Ex. 42, 3-(4-chlorophenyl)-2,5-dimethyl-N-(2-pyridylmethyl)pyrazolo[1,5-a]pyrimidin-7-amine] | 96% | – | –
24 | Cc1cc(NCc2ccccc2)n2ncc(-c3ccccc3)c2n1 [Ex. 21, N-benzyl-5-methyl-3-phenyl-pyrazolo[1,5-a]pyrimidin-7-amine] | – | 78% | –
25 | COc1ccc(-c2c(C)nn3c(NCc4ccnc(C)n4)cc(C)nc23)cc1OC [Ex. 87, 3-(3,4-dimethoxyphenyl)-2,5-dimethyl-N-[(2-methylpyrimidin-4-yl)methyl]pyrazolo[1,5-a]pyrimidin-7-amine] | – | – | inhibition at 0.1 µM (polio virus strain 1): 100%
26 | CC(C)(C)c1cc(NCCCn2ccnc2)n2ncc(-c3ccccc3)c2n1 [Ex. 23, 5-tert-butyl-N-(3-imidazol-1-ylpropyl)-3-phenyl-pyrazolo[1,5-a]pyrimidin-7-amine] | – | 94% | –
27 | Cc1ccc(CCNc2cc(C)nc3c(-c4ccc(Cl)cc4)c(C)nn23)cc1 [Ex. 32, 3-(4-chlorophenyl)-2,5-dimethyl-N-[2-(p-tolyl)ethyl]pyrazolo[1,5-a]pyrimidin-7-amine] | – | 25% | –
28 | COc1ccc(CCNc2cc(C)nc3c(-c4ccc(Cl)cc4)cnn23)cc1OC [Ex. 27, 3-(4-chlorophenyl)-N-[2-(3,4-dimethoxyphenyl)ethyl]-5-methyl-pyrazolo[1,5-a]pyrimidin-7-amine] | – | 35% | –
29 | COc1ccc(CCNc2cc(C)nc3c(-c4ccc(F)cc4)c(C)nn23)cc1OC [Ex. 15, N-[2-(3,4-dimethoxyphenyl)ethyl]-3-(4-fluorophenyl)-2,5-dimethyl-pyrazolo[1,5-a]pyrimidin-7-amine] | – | 75% | –
30 | Cc1cc(NCCCn2ccnc2)n2nc(C)c(-c3cccs3)c2n1 [Ex. 71, N-(3-imidazol-1-ylpropyl)-2,5-dimethyl-3-(2-thienyl)pyrazolo[1,5-a]pyrimidin-7-amine] | – | 72% | –

From US9963455B2, “Pyrazolo[1,5-a]pyrimidines as antiviral compounds” (Curovir AB, priority 2014, dated 2018)
